Measured values as given in ChEMBL document CHEMBL5523700, “Discovery and characterization of potent spiro-isoxazole-based cereblon ligands with a novel binding mode” (Eur J Med Chem, 2024).

Columns and labels:
[1] = tested on: KMS-12-PE; assay: Cytotoxicity against human KMS-12-PE cells assessed as cell survival at 30 uM incubated for 48 hrs by Cell Titer-Glo luminescent assay relative to control; assay type: functional; conditions: read-out: Survival
[2] = Cytotoxicity against human PBMC cells assessed as cell survival at 30 uM incubated for 48 hrs by Cell Titer-Glo luminescent assay relative to control; assay type: toxicity, cell-based; conditions: read-out: Survival
[3] = Lipophilicity, logP of compound by HPLC analysis; assay type: physicochemical
[4] = tested on: MM1.S; assay: Cytotoxicity against human MM1.S cells assessed as cell survival at 30 uM incubated for 48 hrs by Cell Titer-Glo luminescent assay relative to control; assay type: functional; conditions: read-out: Survival
[5] = tested on: MOLP-8; assay: Cytotoxicity against human MOLP8 cells assessed as cell survival at 30 uM incubated for 48 hrs by Cell Titer-Glo luminescent assay relative to control; assay type: functional; conditions: read-out: Survival
[6] = Stability in human plasma assessed as half-life at 10 uM incubated upto 480 mins by HPLC analysis; assay type: ADME, cell-free
[7] = biological target: Protein cereblon (Homo sapiens, UniProt Q96SW2); assay: Binding affinity to human CRBN TBD assessed as inhibition constant using BODIPY-uracil as substrate by Microscale thermophoresis assay
Protein cereblon, sequence (Q96SW2 whole entry): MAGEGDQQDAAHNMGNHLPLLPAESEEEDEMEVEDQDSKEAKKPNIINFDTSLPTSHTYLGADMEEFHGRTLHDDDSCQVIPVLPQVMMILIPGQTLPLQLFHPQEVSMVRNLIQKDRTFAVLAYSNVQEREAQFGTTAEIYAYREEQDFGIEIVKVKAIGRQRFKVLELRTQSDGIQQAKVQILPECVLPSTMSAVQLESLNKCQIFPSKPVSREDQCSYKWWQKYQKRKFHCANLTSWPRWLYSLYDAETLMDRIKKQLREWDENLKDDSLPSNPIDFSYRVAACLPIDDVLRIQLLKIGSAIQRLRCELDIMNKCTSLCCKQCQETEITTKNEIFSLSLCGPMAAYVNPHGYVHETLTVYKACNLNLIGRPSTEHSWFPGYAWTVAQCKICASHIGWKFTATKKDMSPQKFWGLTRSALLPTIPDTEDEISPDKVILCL

| Ki [7] | SMILES | viability at 30 µM [1] | viability at 48 h, 30 µM [2] | logP [3] | viability at 30 µM [4] | viability at 30 µM [5] | half-life at 10 µM [6] |
| --- | --- | --- | --- | --- | --- | --- | --- |
| – | CCCC1=NOC2(CCC(=O)NC2=O)C1 (stereo unspecified) | 100% | 100% | 0.87 | 76.7% | 100% | – |
| – | O=C1CCC2(CC(c3c(Cl)cccc3Cl)=NO2)C(=O)N1 (stereo unspecified) | 99.3% | 88.6% | 1.96 | 39.5% | 94.9% | – |
| – | O=C1CCC(N2C(=O)c3ccccc3C2=O)C(=O)N1 (stereo unspecified) [THALIDOMIDE] | 44.1% | 94.2% | 0.3 | 11.4% | 31.6% | – |
| – | O=C1CCC2(CC(c3ccc(Cl)cc3Cl)=NO2)C(=O)N1 (stereo unspecified) | 100% | 100% | 2.68 | 71.7% | 100% | – |
| – | O=C1CCC2(CC(C3CCCC3)=NO2)C(=O)N1 (stereo unspecified) | 92% | 89.9% | 1.28 | 62.2% | 93% | – |
| – | O=C1CCC2(CC(C3CCCCC3)=NO2)C(=O)N1 (stereo unspecified) | 100% | 100% | 1.87 | 100% | 97% | – |
| – | O=C1CCC2(CC(c3ccccc3Cl)=NO2)C(=O)N1 (stereo unspecified) | 100% | 100% | 1.64 | 43.3% | 100% | 4.97 h |
| – | COc1ccccc1C1=NOC2(CCC(=O)NC2=O)C1 (stereo unspecified) | 86.6% | 100% | 2.22 | 94.8% | 79.3% | – |
| – | O=C1CCC2(CC(c3ccccc3I)=NO2)C(=O)N1 (stereo unspecified) | 100% | 100% | 1.75 | 69.3% | 82.2% | – |
| – | CCC(CC)C1=NOC2(CCC(=O)NC2=O)C1 (stereo unspecified) | 98.9% | 91.2% | 1.6 | 89.1% | 94.1% | – |
| – | O=C1CCC2(CC(c3ccc(C(=O)O)cc3)=NO2)C(=O)N1 (stereo unspecified) | 97.3% | 99.5% | – | 95.6% | 100% | – |
| – | O=C1CCC2(CC(c3ccccc3F)=NO2)C(=O)N1 (stereo unspecified) | 89.2% | 88.6% | 1.37 | 76.5% | 84.5% | – |
| – | Nc1cccc2c1C(=O)N(C1CCC(=O)NC1=O)C2=O (stereo unspecified) [POMALIDOMIDE] | – | – | – | – | – | 3.03 h |
| – | O=C1CCC2(CC(c3ccccc3[N+](=O)[O-])=NO2)C(=O)N1 (stereo unspecified) | 88.5% | 71.5% | 1.23 | 81.9% | 75.5% | – |
| – | CC(C)(C)C1=NOC2(CCC(=O)NC2=O)C1 (stereo unspecified) | 100% | 100% | 1.09 | 75.6% | 100% | – |
| – | O=C1CCC2(CC(c3ccccc3Br)=NO2)C(=O)N1 (stereo unspecified) | 97.8% | 74.9% | 1.68 | 88.3% | 100% | – |
| – | O=C1CCC2(CC(c3cccnc3)=NO2)C(=O)N1 (stereo unspecified) | 88.9% | 83.6% | – | 23.2% | 75.5% | – |
| 103 µM | CC1(C)CC(=O)NC(=O)C1 | – | – | – | – | – | – |
| – | COc1ccc(C2=NOC3(CCC(=O)NC3=O)C2)c(OC)c1OC (stereo unspecified) | 72.2% | 82.4% | 2.67 | 78.7% | 66.3% | – |
